Assay results: ChEMBL document CHEMBL3137547, “Open Source Malaria Deposition 2. http://malaria.ourexperiment.org”

What follows are compounds tested on Plasmodium falciparum (assay: OSM: Erythrocyte assay. NF54 with 3H-Hypoxanthine at 72hr time point.).
Format: functional, organism-based

EC50	Compound
1.67 µM	COc1ccc2ccc(Oc3cncc4nnc(-c5ccc(OC(F)F)cc5)n34)cc2n1
1.67 µM	FC(F)Oc1ccc(-c2nnc3cncc(OCc4cccc5ccccc45)n23)cc1
0.731 µM	Fc1ccc([C@@H]2[C@@H](Oc3cncc4nnc(-c5ccc(OC(F)F)cc5)n34)CN2C2CC2)cc1F
0.101 µM	CC(O)(COc1cncc2nnc(-c3ccc(OC(F)F)cc3)n12)c1ccc(F)c(F)c1 (stereo unspecified)
6.04 µM	FC(F)Oc1ccc(-c2nnc3cncc(Oc4cccc(Oc5ccccn5)c4)n23)cc1
1.46 µM	FC(F)Oc1ccc(-c2nnc3cncc(OCC4CCc5cc(Cl)ccc54)n23)cc1 (stereo unspecified)
0.123 µM	CC(F)(COc1cncc2nnc(-c3ccc(OC(F)F)cc3)n12)c1ccc(F)c(F)c1 (stereo unspecified)
2.02 µM	FC(F)Oc1ccc(-c2nnc3cncc(Oc4ccc5nc(C(F)(F)F)ncc5c4)n23)cc1
0.0654 µM	Fc1ccc(C(F)COc2cncc3nnc(-c4ccc(OC(F)F)cc4)n23)cc1F (stereo unspecified)
0.576 µM	FC(F)Oc1ccc(-c2nnc3cncc(Oc4ccc5ccsc5c4)n23)cc1
6.78 µM	Fc1ccc(CCOc2ccc3nnc(-c4ccc(OC(F)F)cc4)n3n2)cc1F
0.839 µM	Fc1cc2ccc(Oc3cncc4nnc(-c5ccc(OC(F)F)cc5)n34)cc2cc1F
0.173 µM	Fc1cc(F)c2ccc(Oc3cncc4nnc(-c5ccc(OC(F)F)cc5)n34)cc2c1
0.51 µM	Fc1ccc(CCNc2ccc3nnc(-c4ccc(OC(F)F)cc4)n3n2)cc1
10 µM	O=C(Cc1cccc(Cl)c1)Nc1cn2c(-c3ccc(OC(F)F)cc3)nnc2cn1
10 µM	N#Cc1ccc(-c2nnc3ccc(NCCc4cccnc4)nn23)cc1
